The source of these data is patent US9179682B2, “Biocides and apparatus” (A.Y. Laboratories Ltd., priority 2004, dated 2015).

Each structure is given as a SMILES string.

The data set is described as follows: Reduction of Na2S: total sulfur and sulfate after addition of oxidizer, Series 7. Conditions: 100 ml DI water with ~5 mg sodium sulfide; several days after addition of oxidizer.

Description: A series of containers each containing 100 ml DI water in which ˜5 mg of sodium sulfide was dissolved were prepared. To each container an appropriate amount of an oxidizer or a control solution was added as follows: • a. […] Monochloroamine (MCA) formed from ammonium sulfate and NaOCl (1:1 molar ratio, each component pre-diluted before mixing, 15 ppm as total chlorine). • d.
Samples were analyzed for total sulfur and for sulfate several days after addition of oxidizer.

Take `O=N[O-].[Na+]` [Test A, NaNO2]: the “% S remaining” value stood at 100%.
